# Measured values from patent US20010005511A1, “Insect control by insect growth regulators broadcast by volatilization” (Wellmark International, priority 1999, published 2001).
# “And” between values parts separate entries of the source, which are not always exact repeats. Equal values may be shown once. Read-outs that look alike come from different tables or passages of the source.
# Legend:
# [1] = system: fleas (Ctenocephalides felis); experiment: Flea control on carpet circles by S-methoprene volatilized from a 100-watt light bulb in a test room; assay type: in vivo; conditions: for Efficacy at Indicated Distance from Source, 35-Day Residual Effect: carpet rested 35 days before infestation
# Procedure: This example illustrates the efficacy of S-methoprene volatilized by heating from an incandescent light bulb in the control of fleas (Ctenocephalides felis).
# Testing was performed in a test room measuring 8.5 m (28 ft.) (length)×6.1 m (20 ft) (width)×4.3 m (14 ft.) (height) with a movable partition to reduce the room to the desired size. For this series of tests, the partition was placed in various positions such that the horizontal area of the room was variously:
# A single standard 100-watt incandescent light bulb was used as the heating source, and a felt ring that was cut to fit on the top of the light bulb was used as the support for the liquid S-methoprene solution. Three liquid S-methoprene solutions were used as follows:
# Solution A: S-methoprene and IRGANOX® L57 (in a weight ratio of 50:1), to achieve a solution of […] S-methoprene by weight. IRGANOX ® L57 (Ciba-Geigy Corp., Hawthorne, N.Y., USA) is a liquid aminic antioxidant in the form of an alkylated diphenylamine. No solvents were used.
# Solution B: S-methoprene and BHT (in a weight ratio of 50:1), dissolved in a mixture of 1-methoxy-2-propanol and deionized water (in a weight ratio of 84:16) to achieve a solution of 5.2% S-methoprene by weight.
# Solution C: S-methoprene and BHT (in a weight ratio of 50:1), dissolved in a mixture of 1-methoxy-2-propanol and Belmay B-5 Fragrance (in a weight ratio of 44:56) to achieve a solution of 5% S-methoprene by weight.
# As the infested target, circular pieces of carpet were used. Each piece was 7.6 cm (3 inches) in diameter cut from a 1.3-cm (0.5-inch) pile nylon carpet, and individual circles were placed at distances of 0.61 m (2 ft), 3.0 m (10 ft), and 6.1 m (20 ft) from the light bulb.
# The felt ring in each experiment was wetted with 2 g of solution. […] The bulb was turned on for periods of time ranging from 4 h to 120 h. This is referred to below as the “Activation Time.” The temperature of the bulb surface at the location of the felt ring was approximately 215° F. (102° C.). In some of the tests, a horizontal barrier was placed above the carpet circles at distances of 5.1 cm (2 inches) or 7.6 cm (3 inches), to simulate penetration of the S-methoprene to difficult-to-reach places such as under furniture. The carpet circles were placed in two positions below the barrier—one in which the center of the carpet circle was 30 cm (12 inches) from the edge of the barrier (identified below as “Position 1”), and the other in which the center of the carpet circle was 7.6 cm (3 inches) from the edge of the barrier (identified below as “Position 2”).
# After these exposures, the carpet circles were removed from the room, and sprinkled with flea rearing media and infested with 100 viable flea eggs. Similar carpet circles that had not undergone exposure to the volatilized S-methoprene were similarly sprinkled and infested. The exposed (test) and unexposed (control) carpet circles were then placed in a warm (27° C., 80° F.), high humidity (80% relative humidity) room for 35 days to allow any viable flea eggs in the circles to develop to adult fleas. In some of the tests, the carpet circles were allowed to rest for 35 days after removal from the treatment room before being infested with the flea eggs, to test for residual efficacy. In all cases, efficacy was determined by comparing the results from test circles to those from the control circles.
# fleas [2] = experiment: Residual flea control on carpet circles by S-methoprene volatilized from a 60-watt light bulb in a residential living room; assay type: in vivo, Ctenocephalides felis; conditions: for Number of Adult Fleas Emerging From 100 Eggs, individual test samples: 0.1 g (Solution B), 4 h exposure, 6.1 m from bulb, samples 1-6; for Percent Control (Arithmetic) / Percent Control (Geometric): relative to control samples
# Procedure: This example is a further illustration of the efficacy of S-methoprene volatilized by heating from an incandescent light bulb in the control of fleas. The test was performed in a conventional residential living room with a floor area of 21.5 m^2 (231 ft^2). A single standard 60-watt incandescent bulb was used as the heat source, with a felt ring containing 0.1 g of S-methoprene (using Solution B of Example 1). The temperature of the bulb surface at the location of the felt ring was approximately 200° F. (93° C.). The exposure time (the length of time that the lamp containing the bulb was turned on) was four hours. The carpet circles were placed twenty feet (6.1 m) from the bulb.
# After exposure to the volatilized S-methoprene, the carpet circles were each aged (allowed to rest without additional exposure) for 1, 2, 3, or 4 months. They were then challenged by infestation with flea eggs in the same manner as described above in Example 1. The results, expressed in terms of the number of adult fleas emerging after 35 days, are listed in Table II, together with corresponding results from control samples.
# fleas [3] = experiment: Flea control on carpet circles by S-methoprene volatilized by a plug-in heater; assay type: in vivo, Ctenocephalides felis; conditions: for Adult Flea Emergence (From 100 Eggs), Individual Tests: 0.1 g, room 78.4 m^3, activation time 4 h, three carpet circles; for Emax: Ctenocephalides felis
# Procedure: This example illustrates the efficacy of S-methoprene volatilized by a plug-in heater designed for use with mosquito repellents. The heater was an AgRevo heater, 110-120v, 50-60 Hz, 5 watts, purchased from DBK Espana Household Technologies, and the tests were performed in the same test room used for Example 1, adjusted to a floor area of 18.6 m^2 (200 ft^2), resulting in a room volume of 78.4 m^3 (2,800 ft^3). The S-methoprene was placed in the heater by wetting a Whatman filter pad consisting of 50% cellulose and 50% glass fiber, the wetting solution consisting of 8.8% (by weight) S-methoprene in neat 1-methoxy 2-propanol. The amount of solution used was 1.2 g, resulting in 0.1 g of S-methoprene in the pad. Carpet circles were used as in the preceding examples, and all other procedures were the same as those in Example 1. Carpet circles were placed at distances of 0.61 m (2 ft), 3.0 m (10 ft), and 6.1 m (20 ft) from the plug-in-heater, with three carpet circles at each location. Three additional carpet circles were retained outside the room to avoid exposure to the volatilized S-methoprene for use as controls. The activation time for the test circles was four hours. Efficacy was determined by comparing the results from the test circles to those from the control circles.
# [4] = 0.1 g, room 78.4 m^3, activation time 4 h, carpet centre 7.6 cm from barrier edge, 3.0 m
# [5] = 0.1 g, room 78.4 m^3, activation time 4 h, carpet centre 30 cm from barrier edge, 3.0 m
smiles,measurement,setting,value
"COC(C)(C)CCC[C@H](C)C/C=C/C(C)=C/C(=O)OC(C)C [S-methoprene, (E,E)-(7S)-11-methoxy-3,7,11-trimethyldodeca-2,4-dienoate, isopropyl ester]","Efficacy Under 2-in. Overhead Barrier, Position 2",[1]; [4],Position 2: 96%
same,"Efficacy Under 3-in. Overhead Barrier, Position 2",[1]; [4],Position 2: 100%
same,"Efficacy Under 2-in. Overhead Barrier, Position 1",[1]; [5],Position 1: 99%
same,"Efficacy Under 3-in. Overhead Barrier, Position 1",[1]; [5],Position 1: 100%
same,Efficacy at Indicated Distance from Source,"[1]; 0.1 g, room 78.4 m^3, activation time 24 h, 0.61 m from source",99%
same,"Efficacy at Indicated Distance from Source, 35-Day Residual Effect","[1]; 0.1 g, room 78.4 m^3, activation time 24 h, 0.61 m",96%
same,Efficacy at Indicated Distance from Source,"[1]; 0.1 g, room 78.4 m^3, activation time 24 h, 3.0 m from source",99%
same,"Efficacy at Indicated Distance from Source, 35-Day Residual Effect","[1]; 0.1 g, room 78.4 m^3, activation time 24 h, 3.0 m",96%
same,Efficacy at Indicated Distance from Source,"[1]; 0.1 g, room 78.4 m^3, activation time 24 h, 6.1 m from source",99%
same,"Efficacy at Indicated Distance from Source, 35-Day Residual Effect","[1]; 0.1 g, room 78.4 m^3, activation time 24 h, 6.1 m",97%
same,Efficacy at Indicated Distance from Source,"[1]; 0.1 g, room 117.6 m^3, activation time 4 h, 0.61 m from source",100%
same,Efficacy at Indicated Distance from Source,"[1]; 0.1 g, room 117.6 m^3, activation time 4 h, 3.0 m from source",99.4%
same,Efficacy at Indicated Distance from Source,"[1]; 0.1 g, room 117.6 m^3, activation time 4 h, 6.1 m from source",99.4%
same,Efficacy at Indicated Distance from Source,"[1]; 0.1 g, room 186.8 m^3, activation time 4 h, 0.61 m from source",100%
same,Efficacy at Indicated Distance from Source,"[1]; 0.1 g, room 186.8 m^3, activation time 4 h, 3.0 m from source",99.6%
same,Efficacy at Indicated Distance from Source,"[1]; 0.1 g, room 186.8 m^3, activation time 4 h, 6.1 m from source",100%
same,Efficacy at Indicated Distance from Source,"[1]; 0.1 g, room 196 m^3, activation time 4 h, 0.61 m from source",95%
same,Efficacy at Indicated Distance from Source,"[1]; 0.1 g, room 196 m^3, activation time 4 h, 3.0 m from source",97.3%
same,Efficacy at Indicated Distance from Source,"[1]; 0.1 g, room 196 m^3, activation time 4 h, 6.1 m from source",96.5%
same,Efficacy at Indicated Distance from Source,"[1]; 1.8 g S-methoprene volatilized, room 78.4 m^3, activation time 120 h, 0.61 m from source",100%
same,Efficacy at Indicated Distance from Source,"[1]; 1.8 g S-methoprene volatilized, room 78.4 m^3, activation time 120 h, 3.0 m from source",100%
same,Efficacy at Indicated Distance from Source,"[1]; 1.8 g S-methoprene volatilized, room 78.4 m^3, activation time 120 h, 6.1 m from source",100%
same,"Flea control, result in words","[1]; all cases, including lower dosage rate, 35-day residual effect, overhead barrier",excellent control was achieved in all cases
same,"Number of Adult Fleas Emerging From 100 Eggs, Mean (Arithmetic), test samples",fleas [2]; 1 month after treatment,2.8
same,"Number of Adult Fleas Emerging From 100 Eggs, Mean (Geometric), test samples",fleas [2]; 1 month after treatment,2.7
same,"Number of Adult Fleas Emerging From 100 Eggs, individual test samples",fleas [2]; 1 month after treatment,3 (2×) and 2 (3×) and 5
same,Percent Control (Arithmetic),fleas [2]; 1 month after treatment,95.6%
same,Percent Control (Geometric),fleas [2]; 1 month after treatment,95.8%
same,"Number of Adult Fleas Emerging From 100 Eggs, Mean (Arithmetic), test samples",fleas [2]; 2 months after treatment,3.2
same,"Number of Adult Fleas Emerging From 100 Eggs, Mean (Geometric), test samples",fleas [2]; 2 months after treatment,1.9
same,"Number of Adult Fleas Emerging From 100 Eggs, individual test samples",fleas [2]; 2 months after treatment,5 and 2 (2×) and 0 and 4 and 6
same,Percent Control (Arithmetic),fleas [2]; 2 months after treatment,95.5%
same,Percent Control (Geometric),fleas [2]; 2 months after treatment,97.3%
same,"Number of Adult Fleas Emerging From 100 Eggs, Mean (Arithmetic), test samples",fleas [2]; 3 months after treatment,3.7
same,"Number of Adult Fleas Emerging From 100 Eggs, Mean (Geometric), test samples",fleas [2]; 3 months after treatment,0.7
same,"Number of Adult Fleas Emerging From 100 Eggs, individual test samples",fleas [2]; 3 months after treatment,1 and 0 (3×) and 5 and 16
same,Percent Control (Arithmetic),fleas [2]; 3 months after treatment,94.0%
same,Percent Control (Geometric),fleas [2]; 3 months after treatment,98.9%
same,"Number of Adult Fleas Emerging From 100 Eggs, Mean (Arithmetic), test samples",fleas [2]; 4 months after treatment,4.0
same,"Number of Adult Fleas Emerging From 100 Eggs, Mean (Geometric), test samples",fleas [2]; 4 months after treatment,3.0
same,"Number of Adult Fleas Emerging From 100 Eggs, individual test samples",fleas [2]; 4 months after treatment,1 (2×) and 8 and 4 (2×) and 6
same,Percent Control (Arithmetic),fleas [2]; 4 months after treatment,94.3%
same,Percent Control (Geometric),fleas [2]; 4 months after treatment,95.7%
same,"Flea control, result in words","fleas [2]; all cases, 1-4 months after treatment",excellent control was achieved in all cases
same,Persistence of the treatment,fleas [2]; carpet circles aged after exposure,persistent for up to four months
same,"Adult Flea Emergence (From 100 Eggs), Average",fleas [3]; 0.61 m from heater,1
same,"Adult Flea Emergence (From 100 Eggs), Individual Tests",fleas [3]; 0.61 m from heater,0/1/2
same,"Adult Flea Emergence (From 100 Eggs), Average",fleas [3]; 3.0 m from heater,0.3
same,"Adult Flea Emergence (From 100 Eggs), Individual Tests",fleas [3]; 3.0 m from heater,1/0/0
same,"Adult Flea Emergence (From 100 Eggs), Average",fleas [3]; 6.1 m from heater,0.3
same,"Adult Flea Emergence (From 100 Eggs), Individual Tests",fleas [3]; 6.1 m from heater,1/0/0
same,Emax,"fleas [3]; 0.61 m from heater, read-out: % Efficacy (Relative to Control)",92.7%
same,Emax,"fleas [3]; 3.0 m from heater, read-out: % Efficacy (Relative to Control)",97.8%
same,Emax,"fleas [3]; 6.1 m from heater, read-out: % Efficacy (Relative to Control)",97.8%
same,Emax,"fleas [3]; all distances from heater, read-out: % Efficacy (Relative to Control), Overall",96.1%
same,"Flea control, result in words",fleas [3]; all distances from the plug-in heater,excellent control at all distances
